# Measurements reported in patent publication US20190292155A1, “THERAPEUTIC INHIBITORY COMPOUNDS” (LifeSci Pharmaceuticals, Inc., priority 2016, published 2019).
# Target: T1, human complement factor D (Homo sapiens, UniProt P00746)
# T1 construct: purchased R&D Systems 1824-SE
# Experiment: In vitro enzyme inhibition of human complement factor D (Z-Lys-SBzl/DTNB, A405)
# Format: biochemical
# Conditions: not given
# Protocol: The ability of the compounds disclosed herein to inhibit human complement factor D inhibitory activity was quantified according to the 12-step protocol provided below. • 1. Prepare assay buffer: 50 mM Tris/HCl, pH 7.5, 1 M NaCl. • 2. […] Then dilute the serial concentrations of Nafamostat Mesilate 20-fold in assay buffer. • 3. […] 0.5% DMSO was in each well finally. • 4. […] Add 10 μl diluted test compounds duplicated into the 96-well plate. […] 0.5% DMSO was in each well finally. • 6. Dilute 20 mM substrate Z-Lys-SBzl (Bachem, Cat# M-1300) to 200 μM in assay buffer with 200 μM DTNB (Sigma, Catalog# D8130). • 7. […] Add 40 μl diluted Complement Factor D in the 96-well plate. • 8. Positive control well contains Complement Factor D without test compound. Negative control well contains neither Complement Factor D nor test compound. Using assay buffer, bring the total volume of all controls to 50 al. • 9. Pre-incubate the plate for 5 min at room temperature. • 10. Add 50 μl of diluted substrate/DTNB mixture into each well. […] For kinetic reading: Immediately start measuring absorbance (A405 nm) continuously and record data every 30 sec for 60 min. • 12. Data analysis • Inhibition activity of compound was evaluated by IC50. IC50 was calculated according the dose-response curve of compound fitted using GraphPadPrism with “log(inhibitor)-response (variable slope)” equation. • % inhibition was calculated by using following equation:
# [formula] • Mean(NC): The average value of the negative control wells' A405 nm values. • Mean(PC): The average value of the positive control wells' A405 nm values.
# T1 sequence (P00746 26-253): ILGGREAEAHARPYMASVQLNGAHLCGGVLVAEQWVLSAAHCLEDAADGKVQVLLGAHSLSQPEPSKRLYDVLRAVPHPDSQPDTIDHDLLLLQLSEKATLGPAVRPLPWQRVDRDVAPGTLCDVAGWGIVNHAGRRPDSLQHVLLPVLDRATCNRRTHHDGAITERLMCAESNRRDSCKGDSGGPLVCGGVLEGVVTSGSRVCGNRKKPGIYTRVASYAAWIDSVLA
row,Structure (SMILES),IC50 [nM]
1,"CC(C)C(C)N(CC(=O)NCc1cccc(Cl)c1F)C(=O)Cn1nc(C(N)=O)c2ccccc21 (stereo not shown) [Example 54, 1-(2-((2-((3-chloro-2-fluorobenzyl)amino)-2-oxoethyl)(3-methylbutan-2-yl)amino)-2-oxoethyl)-1H-indazole-3-carboxamide]",100 to 1000

# Same assay, conditions: biochemical assay, substrate Z-Lys-SBzl; read-out: CFD IC50
row,IC50 [nM],Structure (SMILES)
1,100 to 1000,"NC(=O)n1cc(CC(=O)N(CC(=O)NCc2cccc(Cl)c2F)C2CC2)c2ccccc21 [Example 41, 3-(2-((2-((3-chloro-2-fluorobenzyl)amino)-2-oxoethyl)(cyclopropyl)amino)-2-oxoethyl)-1H-indole-1-carboxamide]"
2,100 to 1000,"NC(=O)c1nc(CC(=O)N(CC(=O)NCc2cccc(Cl)c2F)C2CC2)n2ccccc12 [Example 42, 3-(2-((2-((3-chloro-2-fluorobenzyl)amino)-2-oxoethyl)(cyclopropyl)amino)-2-oxoethyl)imidazo[1,5-a]pyridine-1-carboxamide]"
3,100 to 1000,"CC(=O)c1nc(CC(=O)N(CC(=O)NCc2cccc(Cl)c2F)C2CC2)n2ccccc12 [Example 48, 2-(1-acetylimidazo[1,5-a]pyridin-3-yl)-N-(2-((3-chloro-2-fluorobenzyl)amino)-2-oxoethyl)-N-cyclopropylacetamide]"
4,1000 to 10000,"CC(O)c1nn(CC(=O)N(CC(=O)NCc2cccc(Cl)c2F)C2CC2)c2ccccc12 (stereo not shown) [Example 49, N-(2-((3-chloro-2-fluorobenzyl)amino)-2-oxoethyl)-N-cyclopropyl-2-(3-(1-hydroxyethyl)-1H-indazol-1-yl)acetamide]"
5,100 to 1000,"NC(=O)n1cc(NC(=O)N(CC(=O)NCc2cccc(Cl)c2F)C2CC2)c2ccccc21 [Example 51, 3-(3-(2-((3-chloro-2-fluorobenzyl)amino)-2-oxoethyl)-3-cyclopropylureido)-1H-indole-1-carboxamide]"
6,100 to 1000,"NC(=O)n1cc(NC(=O)N(CC(=O)NCc2cccc(Cl)c2F)C2CCNC2)c2ccccc21 (stereo not shown) [Example 52, 3-(3-(2-((3-chloro-2-fluorobenzyl)amino)-2-oxoethyl)-3-(pyrrolidin-3-yl)ureido)-1H-indole-1-carboxamide]"

# Second part, the compound before the results:
row,Structure (SMILES),IC50 [nM]
1,"C[C@H](C(=O)NCc1cccc(Cl)c1F)N(C(=O)Cn1nc(C(N)=O)c2ccccc21)C1CC1 [Example 38, (R)-1-(2-((1-((3-chloro-2-fluorobenzyl)amino)-1-oxopropan-2-yl)(cyclopropyl)amino)-2-oxoethyl)-1H-indazole-3-carboxamide]",1000 to 10000
2,"C[C@@H](C(=O)NCc1cccc(Cl)c1F)N(C(=O)Cn1nc(C(N)=O)c2ccccc21)C1CC1 [Example 39, (S)-1-(2-((1-((3-chloro-2-fluorobenzyl)amino)-1-oxopropan-2-yl)(cyclopropyl)amino)-2-oxoethyl)-1H-indazole-3-carboxamide]",> 10000
3,"NC(=O)c1cc(C(F)(F)F)n(CC(=O)N(CC(=O)NCc2cccc(Cl)c2F)C2CC2)n1 [Example 43, 1-(2-((2-((3-chloro-2-fluorobenzyl)amino)-2-oxoethyl)(cyclopropyl)amino)-2-oxoethyl)-5-(trifluoromethyl)-1H-pyrazole-3-carboxamide]",> 10000
4,"NC(=O)c1cc(C(=O)O)n(CC(=O)N(CC(=O)NCc2cccc(Cl)c2F)C2CC2)n1 [Example 44, 3-carbamoyl-1-(2-((2-((3-chloro-2-fluorobenzyl)amino)-2-oxoethyl)(cyclopropyl)amino)-2-oxoethyl)-1H-pyrazole-5-carboxylic acid]",1000 to 10000
5,"NC(=O)c1cc(C(N)=O)n(CC(=O)N(CC(=O)NCc2cccc(Cl)c2F)C2CC2)n1 [Example 45, 1-(2-((2-((3-chloro-2-fluorobenzyl)amino)-2-oxoethyl)(cyclopropyl)amino)-2-oxoethyl)-1H-pyrazole-3,5-dicarboxamide]",1000 to 10000
6,"NC(=O)c1nn(CC(=O)N(CC(=O)NCc2cccc(Cl)c2F)C2CC2)cc1Br [Example 46, 4-bromo-1-(2-((2-((3-chloro-2-fluorobenzyl)amino)-2-oxoethyl)(cyclopropyl)amino)-2-oxoethyl)-1H-pyrazole-3-carboxamide]",1000 to 10000
